In patent US6737383B1, “Herbicidal oxadiazolidines” (priority 1999, dated 2004):

Experiments:
[1] = tested on: Green foxtail; test: Test D green foxtail; format: in vivo; conditions: Preemergence, 0 to 100 scale
Procedure, shortened: (§1)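 Greenhouse pots, sandy loam, single species per pot. Preemergence tests: soil-surface application ≤1 day after planting. Compound formulated in non-phytotoxic solvent with surfactant. Visual rating 14–21 DAT, scale 0–100.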

[2] = tested on: dallisgrass; test: Test D dallisgrass; format: in vivo, Paspalum dilatatum; conditions: Preemergence, 0 to 100 scale
Procedure, shortened: as §1

[3] = tested on: surinam grass; test: Test D surinam grass; format: in vivo, Brachiaria decumbens; conditions: Preemergence, 0 to 100 scale
Procedure, shortened: as §1

[4] = tested on: goosegrass; test: Test D goosegrass; format: in vivo, Eleusine indica; conditions: Preemergence, 0 to 100 scale
Procedure, shortened: as §1

[5] = tested on: Johnson grass; test: Test D Johnson grass; format: in vivo, Sorghum halepense; conditions: Preemergence, 0 to 100 scale
Procedure, shortened: as §1

[6] = tested on: pitted morningglory; test: Test D pitted morningglory; format: in vivo, Ipomoea lacunosa; conditions: Preemergence, 0 to 100 scale
Procedure, shortened: as §1

[7] = tested on: common pursiane; test: Test D common purslane; format: in vivo, Portulaca oleracea
Procedure, shortened: as §1

[8] = tested on: Spanishneedles; test: Test D Spanishneedles; format: in vivo, Bidens bipinnata; conditions: Preemergence, 0 to 100 scale
Procedure, shortened: as §1

[9] = tested on: Alexandergrass; test: Test D Alexandergrass; format: in vivo, Brachiaria plantaginea; conditions: Preemergence, 0 to 100 scale
Procedure, shortened: as §1

[10] = tested on: itchgrass; test: Test D itchgrass; format: in vivo, Rottboellia exaltata; conditions: Preemergence, 0 to 100 scale
Procedure, shortened: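 Scoring used a 0–100 visual injury scale, with 0 meaning no effect and 100 complete control, assessed 14–21 days after application alongside untreated pots. Preemergence treatments went onto sandy loam surfaces of separately potted seeds within a day of sowing.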

[11] = tested on: tall mallow; test: Test D tall mallow; format: in vivo, Malva sylvestris; conditions: Preemergence, 0 to 100 scale
Procedure, shortened: as §1

[12] = tested on: sandbur; test: Test D sandbur; format: in vivo, Cenchrus echinatus; conditions: Preemergence, 0 to 100 scale
Procedure, shortened: as §1

[13] = tested on: common groundsel; test: Test D common groundsel; format: in vivo, Senecio vulgaris; conditions: Preemergence, 0 to 100 scale
Procedure, shortened: as §1

[14] = tested on: Green foxtail; test: Test D green foxtail; format: in vivo
Procedure, shortened: as §1

[15] = tested on: bermuda-grass; test: Test D bermudagrass; format: in vivo, Cynodon dactylon; conditions: Preemergence, 0 to 100 scale
Procedure, shortened: as §1

[16] = Rate 16 g/ha, 0 no injury, 100 complete control
[17] = Rate 32 g/ha, 0 no injury, 100 complete control
[18] = Rate 64 g/ha, 0 no injury, 100 complete control
[19] = Rate 125 g/ha, 0 no injury, 100 complete control
[20] = Rate 16 g/ha; Preemergence; 0 to 100 scale, 0 no injury, 100 complete control
[21] = Rate 32 g/ha; Preemergence; 0 to 100 scale, 0 no injury, 100 complete control
[22] = Rate 64 g/ha, Preemergence; 0 to 100 scale, 0 no injury, 100 complete control
[23] = Rate 125 g/ha, Preemergence; 0 to 100 scale, 0 no injury, 100 complete control
[24] = Rate 250 g/ha; Preemergence; 0 to 100 scale
[25] = Rate 500 g/ha, Preemergence; 0 to 100 scale

Structure (SMILES): C=CCn1c(=O)on(C(=O)N(c2ccccc2)C(C)C)c1=O [Compound 93]
- Plant response rating, Green foxtail ([1]; Rate 250 g/ha): 100
- Plant response rating, Green foxtail ([1]; Rate 500 g/ha): 100
- Plant response rating, Dallisgrass [2, 16]: 60
- Plant response rating, Dallisgrass [2, 17]: 98
- Plant response rating, Dallisgrass [2, 18]: 98
- Plant response rating, Dallisgrass [2, 19]: 98
- Plant response rating, Dallisgrass ([2]; Rate 250 g/ha): 100
- Plant response rating, Dallisgrass ([2]; Rate 500 g/ha): 100
- Plant response rating, Surinam grass [3, 16]: 0
- Plant response rating, Surinam grass [3, 17]: 0
- Surinam grass plant response rating [3, 18]: 85
- Surinam grass plant response rating [3, 19]: 90
- Plant response rating, Surinam grass ([3]; Rate 250 g/ha): 98
- Plant response rating, Surinam grass ([3]; Rate 500 g/ha): 100
- Plant response rating, Goosegrass [4, 16]: 65
- Plant response rating, Goosegrass [4, 17]: 98
- Plant response rating, Goosegrass [4, 18]: 98
- Plant response rating, Goosegrass [4, 19]: 100
- Plant response rating, Goosegrass ([4]; Rate 250 g/ha): 100
- Plant response rating, Goosegrass ([4]; Rate 500 g/ha): 100
- Plant response rating, Johnsongrass [5, 16]: 0
- Plant response rating, Johnsongrass [5, 17]: 0
- Plant response rating, Johnsongrass [5, 18]: 40
- Plant response rating, Johnsongrass [5, 19]: 75
- Plant response rating, Johnsongrass ([5]; Rate 250 g/ha): 95
- Plant response rating, Johnsongrass ([5]; Rate 500 g/ha): 85
- Plant response rating, P. morninglory [6, 16]: 0
- Plant response rating, P. morninglory [6, 17]: 0
- Plant response rating, P. morninglory [6, 18]: 0
- Plant response rating, P. morninglory [6, 19]: 0
- Plant response rating, P. morninglory ([6]; Rate 250 g/ha): 0
- Plant response rating, P. morninglory ([6]; Rate 500 g/ha): 20
- Plant response rating, C. purslane [7, 20]: 0
- Plant response rating, C. purslane [7, 21]: 0
- Plant response rating, C. purslane [7, 22]: 0
- Plant response rating, C. purslane [7, 23]: 0
- Plant response rating, C. purslane [7, 24]: 0
- Plant response rating, C. purslane [7, 25]: 80
- Plant response rating, C. purslane ([7]; Rate 500 g/ha; Preemergence; 0 to 100 scale): 0
- Plant response rating, Spanishneedles [8, 16]: 0
- Plant response rating, Spanishneedles [8, 17]: 0
- Spanishneedles plant response rating [8, 18]: 0
- Spanishneedles plant response rating [8, 19]: 10
- Plant response rating, Spanishneedles ([8]; Rate 500 g/ha): 45
- Plant response rating, Alexandergrass [9, 16]: 0
- Plant response rating, Alexandergrass [9, 17]: 10
- Plant response rating, Alexandergrass [9, 18]: 30
- Plant response rating, Alexandergrass [9, 19]: 85
- Plant response rating, Alexandergrass ([9]; Rate 250 g/ha): 100
- Plant response rating, Alexandergrass ([9]; Rate 500 g/ha): 100
- Plant response rating, Itchgrass [10, 16]: 50
- Plant response rating, Itchgrass [10, 17]: 60
- Plant response rating, Itchgrass [10, 18]: 60
- Plant response rating, Itchgrass [10, 19]: 75
- Plant response rating, Itchgrass ([10]; Rate 250 g/ha): 90
- Plant response rating, Itchgrass ([10]; Rate 500 g/ha): 100
- Plant response rating, Tall Mallow [11, 16]: 0
- Plant response rating, Tall Mallow [11, 17]: 0
- Tall Mallow plant response rating [11, 18]: 0
- Tall Mallow plant response rating [11, 19]: 30
- Plant response rating, Tall Mallow ([11]; Rate 250 g/ha): 90
- Plant response rating, Tall Mallow ([11]; Rate 500 g/ha): 98
- Plant response rating, Sandbur [12, 16]: 0
- Plant response rating, Sandbur [12, 17]: 0
- Sandbur plant response rating [12, 18]: 65
- Sandbur plant response rating [12, 19]: 65
- Plant response rating, Sandbur ([12]; Rate 250 g/ha): 100
- Plant response rating, Sandbur ([12]; Rate 500 g/ha): 100
- Plant response rating, Com. groundsel [13, 16]: 0
- Plant response rating, Com. groundsel [13, 17]: 0
- Plant response rating, Com. groundsel [13, 18]: 0
- Plant response rating, Com. groundsel [13, 19]: 35
- Plant response rating, Com. groundsel ([13]; Rate 250 g/ha): 0
- Plant response rating, Com. groundsel ([13]; Rate 500 g/ha): 100
- Plant response rating, Green foxtail ([14]; Preemergence; Rate 16 g/ha; 0 to 100 scale, 0 no injury, 100 complete control): 65
- Plant response rating, Green foxtail ([14]; Preemergence; Rate 32 g/ha; 0 to 100 scale, 0 no injury, 100 complete control): 75
- Plant response rating, Green foxtail [14, 20]: 65
- Plant response rating, Green foxtail [14, 21]: 0
- Green foxtail plant response rating [14, 22]: 100
- Plant response rating, Green foxtail [14, 22]: 100
- Green foxtail plant response rating [14, 23]: 100
- Plant response rating, Green foxtail [14, 23]: 100
- Plant response rating, Green foxtail [14, 24]: 100
- Plant response rating, Green foxtail [14, 25]: 100
- Plant response rating, Bermudagrass [15, 16]: 80
- Plant response rating, Bermudagrass [15, 17]: 80
- Plant response rating, Bermudagrass [15, 18]: 90
- Plant response rating, Bermudagrass [15, 19]: 100
- Plant response rating, Bermudagrass ([15]; Rate 250 g/ha): 100
- Plant response rating, Bermudagrass ([15]; Rate 500 g/ha): 100
